Test results: ChEMBL document CHEMBL4840381, “BRD9 Bifunctional Degraders for Treating Cancer” (ACS Med Chem Lett, 2021)

The compounds below were run against Protein cereblon/Bromodomain-containing protein 9 (Homo sapiens, UniProt Q9H8M2+Q96SW2) (assay: Induction of CRBN-mediated GFP-fused BRD9 (unknown origin) degradation expressed in HEK293-A cells incubated for 24 hrs by flow cytometric analysis).
Type: cell-based

Chain of Protein cereblon/Bromodomain-containing protein 9 (Q9H8M2 whole entry, the tested form may be a part): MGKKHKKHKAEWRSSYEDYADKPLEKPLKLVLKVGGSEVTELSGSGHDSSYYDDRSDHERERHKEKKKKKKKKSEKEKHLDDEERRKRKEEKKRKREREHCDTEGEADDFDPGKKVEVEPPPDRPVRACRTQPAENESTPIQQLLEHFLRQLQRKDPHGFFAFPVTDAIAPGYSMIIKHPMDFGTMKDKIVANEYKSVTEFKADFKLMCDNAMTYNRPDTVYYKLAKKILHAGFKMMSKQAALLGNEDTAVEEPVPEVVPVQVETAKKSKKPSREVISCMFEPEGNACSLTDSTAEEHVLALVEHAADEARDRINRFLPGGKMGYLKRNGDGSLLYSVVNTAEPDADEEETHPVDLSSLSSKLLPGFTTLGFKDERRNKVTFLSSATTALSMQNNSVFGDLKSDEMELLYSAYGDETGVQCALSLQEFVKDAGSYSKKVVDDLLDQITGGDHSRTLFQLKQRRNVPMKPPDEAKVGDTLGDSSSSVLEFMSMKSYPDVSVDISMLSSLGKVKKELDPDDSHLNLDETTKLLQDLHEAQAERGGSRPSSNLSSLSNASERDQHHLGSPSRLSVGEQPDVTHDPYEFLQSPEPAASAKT
Chain of Protein cereblon/Bromodomain-containing protein 9 (Q96SW2 whole entry, the tested form may be a part): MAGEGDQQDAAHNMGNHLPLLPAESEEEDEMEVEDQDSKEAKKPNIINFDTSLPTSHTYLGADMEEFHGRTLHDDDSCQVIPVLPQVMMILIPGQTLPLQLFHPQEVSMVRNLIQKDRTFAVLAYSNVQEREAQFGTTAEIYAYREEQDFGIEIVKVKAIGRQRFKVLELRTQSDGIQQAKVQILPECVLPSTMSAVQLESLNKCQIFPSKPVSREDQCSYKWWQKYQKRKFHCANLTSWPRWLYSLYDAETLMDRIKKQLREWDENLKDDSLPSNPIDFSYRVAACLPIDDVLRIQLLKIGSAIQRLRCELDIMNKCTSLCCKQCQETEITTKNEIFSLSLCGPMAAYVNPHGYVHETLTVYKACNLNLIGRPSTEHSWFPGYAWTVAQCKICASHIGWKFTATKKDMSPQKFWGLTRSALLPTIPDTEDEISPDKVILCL

DC50, 1 nM:
COc1cc(-c2cn(C)c(=O)c3cnccc23)cc(OC)c1CCN1CCC(OC2CCN(C(=O)c3ccc(Cl)c(N4CCC(=O)NC4=O)c3)CC2)CC1, CCCCn1cc(-c2ccc(O[C@H]3CCN(CC4CCN(C(=O)c5ccc(OC)c(N6CCC(=O)NC6=O)c5)CC4)C[C@@H]3F)c(OC)c2)c2ccncc2c1=O, CCCCn1cc(-c2cc(F)c(O[C@H]3CCN(CC4CCN(C(=O)c5ccc(OC)c(N6CCC(=O)NC6=O)c5)CC4)C[C@@H]3F)c(F)c2)c2ccncc2c1=O, CCCCn1cc(-c2cc(OC)c(OC3CCN(CC4CCN(C(=O)c5ccc(Cl)c(N6CCC(=O)NC6=O)c5)CC4)CC3)c(OC)c2)c2ccncc2c1=O, COc1cc(-c2cn(C)c(=O)c(C)c2C)cc(OC)c1CCN1CCC(OC2CCN(C(=O)c3ccc(Cl)c(N4CCC(=O)NC4=O)c3)CC2)CC1, CCCCn1cc(-c2ccc(OC3CCN(CC4CCN(C(=O)c5ccc(Cl)c(N6CCC(=O)NC6=O)c5)CC4)CC3)c(OC)c2)c2ccncc2c1=O
